Assay results: the supplement of paper PMC10307832

What was measured:
Test in all cases: relative viability (nuclei count vs DMSO), 5 days (fraction); higher = more cells survive
[1] = compound: CCCS(=O)(=O)Nc1ccc(F)c(C(=O)c2c[nH]c3ncc(-c4ccc(Cl)cc4)cc23)c1F [Vemurafenib] + CC(=O)c1c(C)c2cnc(Nc3ccc(N4CCNCC4)cn3)nc2n(C2CCCC2)c1=O [Palbociclib] (partner 0.5 µM)
Outline: (§1)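 Lung cancer cell lines were pin-tool dosed in 1536-well plates on the day after seeding, with either a lone drug or a fixed anchor-drug dose plus five library-drug doses (not always all listed) in √10 steps. Nuclei were counted on 4× images after 5 days. Relative viability is the ratio of treated-well to vehicle-well nuclei counts, with each value a median of duplicate plates.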

Vemurafenib + Dasatinib = compound: CCCS(=O)(=O)Nc1ccc(F)c(C(=O)c2c[nH]c3ncc(-c4ccc(Cl)cc4)cc23)c1F [Vemurafenib] + Cc1nc(Nc2ncc(C(=O)Nc3c(C)cccc3Cl)s2)cc(N2CCN(CCO)CC2)n1 [Dasatinib] (partner 0.075 µM)
Outline: as §1

OSI-027 + Lapatinib = compound: COc1cccc2cc(-c3nc([C@H]4CC[C@H](C(=O)O)CC4)n4ncnc(N)c34)[nH]c12 [OSI-027] + CS(=O)(=O)CCNCc1ccc(-c2ccc3ncnc(Nc4ccc(OCc5cccc(F)c5)c(Cl)c4)c3c2)o1 [Lapatinib] (partner 2 µM)
Outline: as §1

OSI-027 + Phenformin = compound: COc1cccc2cc(-c3nc([C@H]4CC[C@H](C(=O)O)CC4)n4ncnc(N)c34)[nH]c12 [OSI-027] + N=C(N)NC(=N)NCCc1ccccc1 [Phenformin] (partner 250 µM)
Outline: as §1

Cell Line	relative viability ([1]; first compound 0.03162 µM)	relative viability ([1]; first compound 0.1 µM)	relative viability ([1]; first compound 0.3162 µM)	relative viability ([1]; first compound 1 µM)	relative viability (Vemurafenib + Dasatinib; first compound 0.03162 µM)	relative viability (Vemurafenib + Dasatinib; first compound 0.1 µM)	relative viability (Vemurafenib + Dasatinib; first compound 0.3162 µM)	relative viability (Vemurafenib + Dasatinib; first compound 1 µM)	relative viability (OSI-027 + Lapatinib; first compound 0.01 µM)	relative viability (OSI-027 + Lapatinib; first compound 0.03162 µM)	relative viability (OSI-027 + Lapatinib; first compound 0.1 µM)	relative viability (OSI-027 + Lapatinib; first compound 0.3162 µM)	relative viability (OSI-027 + Lapatinib; first compound 1 µM)	relative viability (OSI-027 + Phenformin; first compound 0.01 µM)	relative viability (OSI-027 + Phenformin; first compound 0.03162 µM)	relative viability (OSI-027 + Phenformin; first compound 0.1 µM)	relative viability (OSI-027 + Phenformin; first compound 0.3162 µM)	relative viability (OSI-027 + Phenformin; first compound 1 µM)
NCI-H1437	0.311	0.307	0.311	0.346	0.338	0.336	0.296	0.325	0.807	0.756	0.807	0.69	0.312	0.31	0.292	0.296	0.286	0.211
NCI-H1666	0.579	0.699	0.665	0.641	0.741	0.837	0.644	0.709	0.521	0.709	0.554	0.33	0.27	0.548	0.603	0.556	0.639	0.578
NCI-H647	0.375	0.434	0.404	0.394	0.16	0.198	0.0963	0.188	1.11	1.02	1.17	0.843	0.443	0.569	0.565	0.475	0.415	0.242
NCI-H1623					0.565		0.716	0.485						0.583	0.603	0.485	0.424	0.32
NCI-H23	0.495	0.479	0.498	0.536	0.754	0.77	0.737	0.434	1.07	1.13	1.06	0.618	0.291	0.824	0.767	0.808	0.669	0.533
NCI-H1915	0.526	0.496	0.554	0.487	0.294	0.343	0.267	0.358	1.03	1.07	0.918	0.885	0.806	0.38	0.38	0.359	0.381	0.32
HOP-62	0.436	0.437	0.371	0.396	0.535	0.549	0.292	0.66	1.1	1.09	0.848	0.849	0.855	0.648	0.565	0.716	0.77	0.388
NCI-H2342	0.512	0.461	0.541	0.548	0.313	0.304	0.266	0.326						0.524	0.533	0.564	0.481	0.445
NCI-H520	0.222	0.188	0.221	0.222	0.188	0.189	0.203	0.197	0.832	0.835	0.666	0.408	0.235	0.581	0.456	0.28	0.21	0.187
COR-L23	0.325	0.257	0.178	0.265	0.423	0.503	0.443	0.482	0.887	1.2	0.744	1	0.34	0.53	0.445	0.476	0.445	0.206
